From US12514852B2 (CINDOME PHARMA, INC., priority 2018, dated 2026)

Tests used:
beagle dogs [1] = assay: Dog cardiovascular study, QTc, d4-domperidone capsules (Example 3); assay type: in vivo; details: male dogs; for QTc Percent Change Segment 1 (0-6 hours) / QTc Percent Change Segment 2 (7-24 hours) / QTc change Segment 1 (0-6 hours) / QTc change Segment 2 (7-24 hours): vs time-matched control; for Duration of Effect (hours post dose): QTc
Experimental: Oral suspensions were administered via gavage for comparison purposes. […]
One animal/treatment was dosed each week with at least a 3-day washout period between administrations until each animal received all treatments. See, Table 5. The same 5 animals received all treatments according to a Latin square design with at least a 3-day washout between treatments. Body temperature, blood pressure, heart rate, and the electrocardiogram (ECG) were monitored continuously for at least 2 hours prior to dosing and for at least 24 hours post dose.
Three days prior to the study, the animals were continuously monitored for at least 24 hours for body temperature and cardiovascular endpoints while on the stock colony (10 days prior to the first administration). […] The first 24 hours of the data were used in the calculation of the QTc interval. Body temperature, blood pressure, heart rate (derived from blood pressure and ECG), and the ECG were monitored continuously from at least 2 hours predose until at least 24 hours post dose. Data were collected and analyzed in 1-minute intervals and are reported in 15-minute intervals. The QTc interval was calculated using a procedure based on the method described by Spence (“The heart rate corrected QT interval of conscious beagle dogs: a formula based on analysis of covariance,” Toxicol Sci, 1998; 45:247 258) and modified by Miyazaki and Tagawa (“Rate-correction technique for QT interval in long term telemetry ECG recording in beagle dogs,” Exp. Anim., 2002; 51:465 475). Blood samples (approximately 1 mL) were collected via jugular vein and 8 and 24 hours post dose to confirm exposure.
Table 6 indicates the change (% and ms) from the appropriate time-matched control for each d4-domperidone treatment.

beagle dogs [2] = assay: Dog cardiovascular study, QTc, non-deuterated domperidone by gavage (Example 3); assay type: in vivo; details: for QTc Maximum % Change / Time of QTc Maximum % Change / QTc Percent Change Segment 1 (0-6 hours) / QTc Percent Change Segment 2 (7-24 hours) / QTc change Segment 1 (0-6 hours) / QTc change Segment 2 (7-24 hours) / QTcVdW increase (Van de Water formula) / Duration of Effect (hours post dose): beagle dogs; for QTc Percent Change Segment 1 (0-6 hours) / QTc Percent Change Segment 2 (7-24 hours) / QTc change Segment 1 (0-6 hours) / QTc change Segment 2 (7-24 hours): vs time-matched control; for Duration of Effect (hours post dose): QTc
Experimental: Oral suspensions were administered via gavage for comparison purposes.
USP. The d4-domperidone formulation was Formulation A, Example 1. […] One animal/treatment was dosed each week with at least a 2-day washout period between administrations until each animal received all treatments. The same 4 animals received treatments according to a Latin square design. Systolic blood pressure, diastolic blood pressure, heart rate and Lead II electrocardiogram were continuously recorded. The measurements started 1.5 hrs prior to the dose administration and all parameters were continuously recorded 24 hrs following the end of dosing of the last animal.
The individual animal correction (QTcVdW) was calculated using Van de Water formula.

in vivo = details: male, Beagle, dog, plasma, po, 1 mg/kg

For [2H]c1c([2H])c([2H])c2c([nH]c(=O)n2CCCN2CCC(n3c(=O)[nH]c4cc(Cl)ccc43)CC2)c1[2H] [d4-domperidone, 1-{3-[4-(5-chloro-2-oxo-2,3-dihydro-1H-1,3-benzodiazol-1-yl)piperidin-1yl]propyl}-2,3-dihydro(4,5,6,7-D4)-1H-1,3-benzodiazol-2-one], the “QTc Maximum % Change” value (beagle dogs [1]; 20 mg capsule) was 4%, the “Time of QTc Maximum % Change” value (beagle dogs [1]; 20 mg capsule) was 3.5 h and the “QTc Percent Change Segment 1 (0-6 hours)” value (beagle dogs [1]; 20 mg capsule) was “+1%”. For the same compound, the “QTc Percent Change Segment 2 (7-24 hours)” value (beagle dogs [1]; 20 mg capsule) was “+0%”, the “QTc change Segment 1 (0-6 hours)” value (beagle dogs [1]; 20 mg capsule) was 3 ms and the “QTc change Segment 2 (7-24 hours)” value (beagle dogs [1]; 20 mg capsule) was 1 ms. For the same compound, the “Time of QTc Maximum % Change” value (beagle dogs [1]; 110 mg capsule) was 5 h, the “QTc Percent Change Segment 1 (0-6 hours)” value (beagle dogs [1]; 110 mg capsule) was “+5%” and the “QTc Percent Change Segment 2 (7-24 hours)” value (beagle dogs [1]; 110 mg capsule) was “+1%”. The “QTc change Segment 1 (0-6 hours)” value (beagle dogs [1]; 110 mg capsule) was 12 ms, the “QTc change Segment 2 (7-24 hours)” value (beagle dogs [1]; 110 mg capsule) was 2 ms and the “QTc Maximum % Change” value (beagle dogs [1]; 110 mg capsule, statistically significant) was 10%. For the same compound, the “Time of QTc Maximum % Change” value (beagle dogs [1]; 385 mg capsule) was 6 h, the “QTc Percent Change Segment 1 (0-6 hours)” value (beagle dogs [1]; 385 mg capsule) was “+8%” and the “QTc Percent Change Segment 2 (7-24 hours)” value (beagle dogs [1]; 385 mg capsule) was “+6%”. For the same compound, the “QTc change Segment 1 (0-6 hours)” value (beagle dogs [1]; 385 mg capsule) was 17 ms, the “QTc change Segment 2 (7-24 hours)” value (beagle dogs [1]; 385 mg capsule) was 13 ms and the “QTc Maximum % Change” value (beagle dogs [1]; 385 mg capsule, statistically significant) was 13%. The “Duration of Effect (hours post dose)” value (beagle dogs [1]; 20 mg capsule) was 1.5-12 hours post dose and the “Duration of Effect (hours post dose)” value (beagle dogs [1]; 110 mg capsule) was 0.5-12 hours post dose.
For O=c1[nH]c2ccccc2n1CCCN1CCC(n2c(=O)[nH]c3cc(Cl)ccc32)CC1 [domperidone, 5-chloro-1-(1-[3-(2-oxo-2,3-dihydro-1H-benzo[d]imidazol-1-yl)propyl]piperidin-4-yl)-1H-benzo[d]imidazol-2(3H)-one], the “QTc Maximum % Change” value (beagle dogs [2]; 1 mg/kg gavage) was 6%, the “Time of QTc Maximum % Change” value (beagle dogs [2]; 1 mg/kg gavage) was 2 h and the “QTc Percent Change Segment 1 (0-6 hours)” value (beagle dogs [2]; 1 mg/kg gavage) was “+6%”. The “QTc Percent Change Segment 2 (7-24 hours)” value (beagle dogs [2]; 1 mg/kg gavage) was “+2%”, the “QTc change Segment 1 (0-6 hours)” value (beagle dogs [2]; 1 mg/kg gavage) was 13 ms and the “QTc change Segment 2 (7-24 hours)” value (beagle dogs [2]; 1 mg/kg gavage) was 4 ms. The “Time of QTc Maximum % Change” value (beagle dogs [2]; 5 mg/kg gavage) was 2 h, the “QTc Percent Change Segment 1 (0-6 hours)” value (beagle dogs [2]; 5 mg/kg gavage) was “+11%” and the “QTc Percent Change Segment 2 (7-24 hours)” value (beagle dogs [2]; 5 mg/kg gavage) was “+7%”. For the same compound, the “QTc change Segment 1 (0-6 hours)” value (beagle dogs [2]; 5 mg/kg gavage) was 23 ms, the “QTc change Segment 2 (7-24 hours)” value (beagle dogs [2]; 5 mg/kg gavage) was 15 ms and the “QTc Maximum % Change” value (beagle dogs [2]; 5 mg/kg gavage, statistically significant) was 11%. The “QTcVdW increase (Van de Water formula)” value (beagle dogs [2]; 5 mg/kg) was “up to 23 msec”, the “Time of QTc Maximum % Change” value (beagle dogs [2]; 20 mg/kg gavage) was 2 h and the “QTc Percent Change Segment 1 (0-6 hours)” value (beagle dogs [2]; 20 mg/kg gavage) was “+10%”. For the same compound, the “QTc Percent Change Segment 2 (7-24 hours)” value (beagle dogs [2]; 20 mg/kg gavage) was “+7%”, the “QTc change Segment 1 (0-6 hours)” value (beagle dogs [2]; 20 mg/kg gavage) was 21 ms and the “QTc change Segment 2 (7-24 hours)” value (beagle dogs [2]; 20 mg/kg gavage) was 16 ms. For the same compound, the “QTc Maximum % Change” value (beagle dogs [2]; 20 mg/kg gavage, statistically significant) was 10%, the “QTcVdW increase (Van de Water formula)” value (beagle dogs [2]; 20 mg/kg) was ≤ 21 ms and the “effect on QTc change, lower doses of non-deuterated formulation compared to higher doses of deuterated formulation” value (beagle dogs [2]; FIGS. 9 and 10, beagle dogs, in words) was “greater effect on QTc change”. The “Duration of Effect (hours post dose)” value (beagle dogs [2]; 1 mg/kg gavage) was 1-2 hours post dose, the “Duration of Effect (hours post dose)” value (beagle dogs [2]; 5 mg/kg gavage) was 0.5-6 hours post dose and the “Duration of Effect (hours post dose)” value (beagle dogs [2]; 20 mg/kg gavage) was 0.5-4 hours post dose. It also gave an MRT last (in vivo) of 5 h.
